Source: ChEMBL document CHEMBL1140562, “Anti-AIDS agents 73: structure-activity relationship study and asymmetric synthesis of 3-O-monomethylsuccinyl-betulinic acid derivatives” (Bioorg Med Chem Lett, 2007)
Activity calls are given as the source filed them. No cut-off for these calls is given here.

Columns and labels:
[1] = Therapeutic index, ratio of IC50 for MT2 cells to EC50 for HIV1; assay type: cell-based; details: human, read-out: Ratio IC50/EC50
[2] = system: MT2; experiment: Cytotoxicity against MT2 cells by XTT assay; assay type: functional, cell-based; details: Homo sapiens
[3] = system: Human immunodeficiency virus 1; experiment: Antiviral activity against HIV1; assay type: functional, organism-based

In the case of C=C(C)[C@@H]1CC[C@]2(C(=O)O)CC[C@]3(C)[C@H](CC[C@@H]4[C@@]5(C)CC[C@H](OC(=O)[C@@H](C)CC(=O)O)C(C)(C)[C@@H]5CC[C@]43C)[C@@H]12, the selectivity ratio [1] is reported as 100, the IC50 [2] is reported as greater than 43.8 µM and the EC50 [3] is reported as 0.44 µM.

For C=C(C)[C@@H]1CC[C@]2(C(=O)O)CC[C@]3(C)[C@H](CC[C@@H]4[C@@]5(C)CC[C@H](OC(=O)CC(C)C(=O)O)C(C)(C)[C@@H]5CC[C@]43C)[C@@H]12 (stereo partly specified), the selectivity ratio [1] was 5320, the IC50 [2] was greater than 44.9 µM and the EC50 [3] was 0.016 µM.

For C=C(C)[C@@H]1CC[C@]2(C(=O)O)CC[C@]3(C)[C@H](CC[C@@H]4[C@@]5(C)CC[C@H](OC(=O)C[C@H](C)CO)C(C)(C)[C@@H]5CC[C@]43C)[C@@H]12, the IC50 [2] was greater than 44.9 µM and the Activity [3] was “inactive”.

Cc1cn([C@H]2C[C@H](N=[N+]=[N-])[C@@H](CO)O2)c(=O)[nH]c1=O [ZIDOVUDINE] gave an IC50 [2] of 1870 µM and an EC50 [3] of 0.34 µM.

For C=C(C)[C@@H]1CC[C@]2(C(=O)O)CC[C@]3(C)[C@H](CC[C@@H]4[C@@]5(C)CC[C@H](OC(=O)C[C@@H](C)C(=O)O)C(C)(C)[C@@H]5CC[C@]43C)[C@@H]12, the selectivity ratio [1] was 961, the IC50 [2] was greater than 43.8 µM and the EC50 [3] was 0.12 µM.

For C=C(C)[C@@H]1CC[C@]2(C(=O)O)CC[C@]3(C)[C@H](CC[C@@H]4[C@@]5(C)CC[C@H](OC(=O)[C@H](C)CC(=O)O)C(C)(C)[C@@H]5CC[C@]43C)[C@@H]12, the IC50 [2] was greater than 43.8 µM and the Activity [3] was “inactive”.

Compound C=C(C)[C@@H]1CC[C@]2(C(=O)O)CC[C@]3(C)[C@H](CC[C@@H]4[C@@]5(C)CC[C@H](OC(=O)C[C@H](C)C(=O)O)C(C)(C)[C@@H]5CC[C@]43C)[C@@H]12 has a selectivity ratio [1] of 6270, an IC50 [2] of 32.8 µM and an EC50 [3] of 0.0087 µM.

C=C(C)[C@@H]1CC[C@]2(C(=O)O)CC[C@]3(C)[C@H](CC[C@@H]4[C@@]5(C)CC[C@H](OC(=O)CC(C)(C)C(=O)O)C(C)(C)[C@@H]5CC[C@]43C)[C@@H]12 [BEVIRIMAT] showed a selectivity ratio [1] of 30600, an IC50 [2] greater than 42.8 µM and an EC50 [3] of 0.0013 µM.
